One block for each compound: values may come before it.
Experiments:
[1] = tested on: BEAS-2B cells; test: Cell viability; type: cell-based, human; conditions: for Protection against the antiproliferative effects of elastase: Figure 4C, caspase 3 inhibitor 10 μM pre-incubation
[2] = tested on: caspase 3/7 activity of BEAS-2B cells; conditions: 100 nM elastase; 10 μM inhibitor pre-incubation
[3] = tested on: panel of 68 proteases; conditions: 10 μM
[4] = target: Human Pancreatic Chymotrypsin (Homo sapiens, UniProt P17538); test: In vitro protease assay, human pancreatic chymotrypsin; type: biochemical
Sequence of Human Pancreatic Chymotrypsin (P17538 19-263): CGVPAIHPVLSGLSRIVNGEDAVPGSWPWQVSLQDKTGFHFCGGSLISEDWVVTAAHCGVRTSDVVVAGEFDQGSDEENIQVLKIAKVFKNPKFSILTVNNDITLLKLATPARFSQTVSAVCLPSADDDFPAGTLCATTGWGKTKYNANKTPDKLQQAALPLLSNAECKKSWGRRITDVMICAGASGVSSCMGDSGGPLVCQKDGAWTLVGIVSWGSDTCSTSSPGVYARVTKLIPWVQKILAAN

[5] = tested on: BEAS-2B cells; test: Cell detachment and morphology change; type: cell-based, human; conditions: for Elastase-induced cell rounding (morphology change): 10 μM cotreatment, 3 h
[6] = tested on: sICAM-1; conditions: 6 h cotreatment, culture supernatant
[7] = tested on: IκB degradation and p65 nuclear translocation; conditions: 3 h of cotreatment
[8] = tested on: transcript levels in BEAS-2B cells; conditions: 3 h cotreatment

Compound: COC(=O)CC[C@H](NC(=O)[C@H](CC(=O)OC)NC(=O)OCc1ccccc1)C(=O)N[C@H](C(=O)N[C@@H](CC(=O)OC)C(=O)CF)C(C)C
Protection against the antiproliferative effects of elastase [1]: partially protected | Effect on elastase-induced increase in caspase activation [2]: abrogated

Compound: C/C=C1\NC(=O)[C@@H](NC(=O)[C@H](CCC(N)=O)NC(=O)CCCCC)[C@@H](C)OC(=O)[C@H](C(C)C)NC(=O)[C@H](Cc2ccc(O)cc2)N(C)C(=O)[C@H](Cc2ccccc2)N2C(=O)[C@H](CC[C@H]2O)NC1=O [Lyngbyastatin 7]
Inhibition of the serine proteases elastase, chymotrypsin and proteinase K [3]: completely inhibiting

IC50 [4]: > 10000 nM
Compound: CC(C)(C)C(=O)Oc1ccc(S(=O)(=O)Nc2ccccc2C(=O)NCC(=O)O)cc1 [Sivelestat]
Protection against the antiproliferative effects of elastase [1]: partially protected | Concentration required to completely negate elastase-induced cytotoxicity ([1]; elastase co-treatment, 24 h): 100 µM | Elastase-induced cell rounding (morphology change) [5]: prevented this effect of elastase | Concentration showing cytoprotective effect against cell detachment ([5]; 12 h): 100 µM

Compound: C/C=C1\NC(=O)[C@@H](NC(=O)[C@@H](NC(=O)[C@@H](COS(=O)(=O)[O-])OC)C(C)C)[C@@H](C)OC(=O)[C@H]([C@H](C)CC)NC(=O)[C@H](Cc2ccccc2)N(C)C(=O)[C@H](Cc2ccccc2)N2C(=O)[C@H](CC[C@H]2O)NC1=O.[Na+] [Symplostatin 5 (1), Symplostatin 5]
Effect on proliferation of BEAS-2B cells ([1]; up to 100 μM, with solvent control or 100 nM elastase, 24 h): did not significantly affect the proliferation | Elastase-induced cell rounding (morphology change) [5]: prevented this effect of elastase | Concentration that decreased elastase-induced sICAM-1 level [6]: ≥ 1 µM | Elastase-induced IκB degradation and p65 nuclear translocation [7]: dose-dependently inhibited | Elastase-induced increase in IL1B transcript levels (RT-qPCR) [8]: strongly abrogated

Compound: elastase: exogenous elastase used to challenge BEAS-2B cells
IC50 ([1]; read-out: Antiproliferative IC50 of elastase (MTT), BEAS-2B, 24 h): 77.5 ± 4.9 nM
